Here are results for 14 compounds from ChEMBL document CHEMBL1159244, “New polyoxypregnane ester derivatives from Leptadenia hastata” (J Nat Prod, 1995).

Test [1] has as its system Raji. Briefly: Cytotoxicity against human Raji cells assessed as [methyl-3H]thymidine incorporation into DNA at 0.5 ug/ml after 24 hrs. The test is classed as functional, cell-based.
For test [2], the system named is Raji. In words: Cytotoxicity against human Raji cells assessed as [methyl-3H]thymidine incorporation into DNA at 1 ug/ml after 24 hrs. It is filed as functional, cell-based. Background: Dividing cells build labelled thymidine or BrdU into new DNA.

The structures appear in SMILES notation. Calls of active or inactive are those of the source. No cut-off for these calls is given here.

Regarding `CC(=O)O[C@@H](C)[C@]1(O)CC[C@@]2(O)[C@]1(C)[C@H](OC(=O)/C=C/c1ccccc1)C[C@@H]1[C@@]3(C)CC[C@H](O)CC3=CC[C@]12O`, the outcome in the test on Raji [1] and in the test on Raji [2] was inactive.
Consider `CO[C@H]1C[C@H](O[C@H]2CC[C@@]3(C)C(=CC[C@]4(O)[C@@H]3C[C@@H](OC(=O)/C=C/c3ccccc3)[C@@]3(C)[C@]4(O)CC[C@@]3(O)[C@H](C)O)C2)O[C@H](C)[C@H]1O[C@H]1C[C@@H](OC)[C@H](O)[C@@H](C)O1`, for which the result with Raji [1] and in the test on Raji [2] was inactive.
As to `CC(=O)O[C@@H]1C[C@@H]2[C@@]3(C)CC[C@H](O)CC3=CC[C@@]2(O)[C@@]2(O)CC[C@@](O)(C(C)=O)[C@@]12C`, the result in the test with Raji [1] and with Raji [2] was inactive.
Regarding `C[C@H](OC(=O)/C=C/c1ccccc1)[C@]1(O)CC[C@@]2(O)[C@]1(C)[C@H](OC(=O)c1ccccc1)C[C@@H]1[C@@]3(C)CC[C@H](O)CC3=CC[C@]12O`, the outcome with Raji [1] and in the test on Raji [2] was inactive.
As to `C[C@H](OC(=O)c1ccccc1)[C@]1(O)CC[C@@]2(O)[C@]1(C)[C@H](OC(=O)c1ccccc1)C[C@@H]1[C@@]3(C)CC[C@H](O)CC3=CC[C@]12O`, the result in the test with Raji [1] and in the test with Raji [2] was inactive.
Consider `CC(=O)O[C@@H](C)[C@]1(O)CC[C@@]2(O)[C@]1(C)[C@H](OC(=O)c1cccnc1)C[C@@H]1[C@@]3(C)CC[C@H](O)CC3=CC[C@]12O`, for which the outcome in the test on Raji [1] and with Raji [2] was inactive.
As for `CC(=O)O[C@@H]1C[C@@H]2[C@@]3(C)CC[C@H](O)CC3=CC[C@@]2(O)[C@@]2(O)CC[C@@](O)([C@H](C)O)[C@@]12C`, the result with Raji [1] and with Raji [2] was inactive.
For `CC(=O)[C@]1(O)CC[C@@]2(O)[C@]1(C)[C@H](OC(=O)c1ccccc1)C[C@@H]1[C@@]3(C)CC[C@H](O)CC3=CC[C@]12O`, the result in the test on Raji [1] and with Raji [2] was inactive.
Turning to `C[C@H](O)[C@]1(O)CC[C@@]2(O)[C@]1(C)[C@H](OC(=O)/C=C/c1ccccc1)C[C@@H]1[C@@]3(C)CC[C@H](O)CC3=CC[C@]12O`, the result in the test with Raji [1] and with Raji [2] was inactive.
`CO[C@H]1C[C@H](O[C@H]2CC[C@@]3(C)C(=CC[C@]4(O)[C@@H]3C[C@@H](OC(=O)c3ccccc3)[C@@]3(C)[C@]4(O)CC[C@@]3(O)[C@H](C)OC(=O)/C=C/c3ccccc3)C2)O[C@H](C)[C@H]1O`: the result with Raji [1] and in the test with Raji [2] was inactive.
As for `CC(=O)[C@]1(O)CC[C@@]2(O)[C@]1(C)[C@H](OC(=O)/C=C/c1ccccc1)C[C@@H]1[C@@]3(C)CC[C@H](O)CC3=CC[C@]12O`, the result with Raji [1] and in the test with Raji [2] was inactive.
Turning to `CC(=O)[C@]1(O)CC[C@@]2(O)[C@]1(C)[C@H](OC(=O)c1cccnc1)C[C@@H]1[C@@]3(C)CC[C@H](O)CC3=CC[C@]12O`, the outcome with Raji [1] and with Raji [2] was inactive.
As to `CO[C@H]1C[C@H](O[C@H]2CC[C@@]3(C)C(=CC[C@]4(O)[C@@H]3C[C@@H](OC(=O)c3ccccc3)[C@@]3(C)[C@]4(O)CC[C@@]3(O)[C@H](C)OC(=O)/C=C/c3ccccc3)C2)O[C@H](C)[C@H]1O[C@H]1C[C@@H](OC)[C@H](O)[C@@H](C)O1`, the outcome in the test with Raji [1] and in the test with Raji [2] was inactive.
For `C[C@H](OC(=O)c1cccnc1)[C@]1(O)CC[C@@]2(O)[C@]1(C)[C@H](OC(=O)/C=C/c1ccccc1)C[C@@H]1[C@@]3(C)CC[C@H](O)CC3=CC[C@]12O`, the result in the test on Raji [1] and with Raji [2] was inactive.
